In patent US20180105881A1, “METHOD FOR DETERMINING THE SURVIVAL PROGNOSIS OF A PATIENT SUFFERING FROM PANCREATIC CANCER” (ACOBIOM, priority 2014, published 2018):

Test system: pancreatic cancer
Test: Overall survival of pancreatic cancer patients treated with gemcitabine (reference population, blood taken before treatment)
Type: in vivo, Homo sapiens
Details: patients treated with gemcitabine who have the genetic pro-metastatic fingerprint
Protocol: Samples of whole blood from 61 patients, taken before treatment, packaged in PAXgene tubes in dry ice (supplier: LabConnect, United States) were received and stored at −80° C. They were designated “week 0”.
The RNA samples were divided into 2 groups: • M4: corresponding to the patients who received gemcitabine after collection of the reference blood samples, and who died before month 4; • M15: corresponding to the patients who received gemcitabine after collection of the reference blood samples, and were alive after month 15.
An additional pharmacogenomic study was also carried out. Samples of the RNA from blood from 61 patients were taken before any treatment, and they were analysed by RT-PCR.
The patients treated with gemcitabine who have the genetic pro-metastatic fingerprint have a low overall survival rate (OS) (5.0 months).

Nc1ccn([C@@H]2O[C@H](CO)[C@@H](O)C2(F)F)c(=O)n1 [Gemcitabine]
overall survival time: 5.0 months
